# Assay results: ChEMBL document CHEMBL1201862, “PubChem BioAssay data set” (2004)
#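 Exposure lasted 48 hours, with cells grown in 96-well plates and compounds tested at five concentrations. GI50 = concentration required for 50% inhibition of growth.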 Active and inactive are the calls of the source. No stated cut-off is given here; in the data, active = GI50 up to about 1.1 µM and inactive = higher.
# Legend:
# Test in all cases: DTP human tumour cell line panel, 48 h
# BT-549 = test system: BT-549
# MCF7 = test system: MCF7
# PC-3 = test system: PC-3
# MDA-N = test system: MDA-N
# HCC 2998 = test system: HCC 2998
# HCT-116 = test system: HCT-116
# OVCAR-5 = test system: OVCAR-5
# HT-29 = test system: HT-29
# MDA-MB-435 = test system: MDA-MB-435
# EKVX = test system: EKVX
# OVCAR-3 = test system: OVCAR-3
# CCRF-CEM = test system: CCRF-CEM
# SF-539 = test system: SF-539
# MDA-MB-231 = test system: MDA-MB-231
# SR = test system: SR
# NCI-H23 = test system: NCI-H23
# COLO 205 = test system: COLO 205
# 786-0 = test system: 786-0
# U-251 = test system: U-251
# UACC-62 = test system: UACC-62
SMILES,GI50 (BT-549),GI50 (MCF7),GI50 (PC-3),GI50 (MDA-N),GI50 (HCC 2998),GI50 (HCT-116),GI50 (OVCAR-5),GI50 (HT-29),GI50 (MDA-MB-435),GI50 (EKVX),GI50 (OVCAR-3),GI50 (CCRF-CEM),GI50 (SF-539),GI50 (MDA-MB-231),GI50 (SR),GI50 (NCI-H23),GI50 (COLO 205),GI50 (786-0),GI50 (U-251),GI50 (UACC-62)
CCc1c(O)c2c(c(O)c1C(C)=O)C(=O)c1c(cc(O)c(C(=O)O)c1C(=O)O)C2=O,> 100 µM (inactive),> 100 µM (inactive),> 100 µM (inactive),> 100 µM (inactive),> 100 µM (inactive),> 100 µM (inactive),> 100 µM (inactive),> 100 µM (inactive),> 100 µM (inactive),> 100 µM (inactive),> 100 µM (inactive),> 100 µM (inactive),> 100 µM (inactive),> 100 µM (inactive),> 100 µM (inactive),> 100 µM (inactive),> 100 µM (inactive),> 100 µM (inactive),> 100 µM (inactive),> 100 µM (inactive)
CCOC(=O)NC1=C(N2CC2)C(=O)C(NC(=O)OCC)=C(N2CC2)C1=O [DIAZIQUONE],11.4 µM (inactive),1.98 µM (inactive),4.36 µM (inactive),3.4 µM (inactive),6.85 µM (inactive),3.53 µM (inactive),7.85 µM (inactive),7.73 µM (inactive),3.58 µM (inactive),6.37 µM (inactive),4.75 µM (inactive),1.37 µM (inactive),1.75 µM (inactive),8.13 µM (inactive),0.339 µM (active),1.85 µM (inactive),7.69 µM (inactive),1.56 µM (inactive),2.51 µM (inactive),0.489 µM (active)
